Assays:
Alpha-glucosidase = molecular target: T1, Alpha-glucosidase (Apis mellifera, UniProt Q17058); test: Inhibition of family 13 alpha-glucosidase isoform I from honey bee at 1 umol/mL
T1 sequence (Q17058 whole entry): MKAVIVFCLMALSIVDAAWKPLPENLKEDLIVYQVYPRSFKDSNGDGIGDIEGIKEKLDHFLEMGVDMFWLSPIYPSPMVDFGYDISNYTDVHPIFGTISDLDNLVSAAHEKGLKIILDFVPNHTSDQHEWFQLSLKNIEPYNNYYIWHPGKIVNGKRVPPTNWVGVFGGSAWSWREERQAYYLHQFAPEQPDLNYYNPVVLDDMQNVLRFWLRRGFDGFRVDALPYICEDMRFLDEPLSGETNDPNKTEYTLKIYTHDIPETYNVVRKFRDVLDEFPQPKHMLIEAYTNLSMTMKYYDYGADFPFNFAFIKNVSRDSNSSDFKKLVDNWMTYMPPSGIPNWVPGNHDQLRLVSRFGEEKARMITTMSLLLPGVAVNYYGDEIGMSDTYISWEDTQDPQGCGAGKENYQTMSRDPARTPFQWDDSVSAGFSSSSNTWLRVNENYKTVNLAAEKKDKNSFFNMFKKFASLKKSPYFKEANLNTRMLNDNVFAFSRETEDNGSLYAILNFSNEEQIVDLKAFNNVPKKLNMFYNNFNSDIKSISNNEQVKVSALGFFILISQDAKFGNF

[1] = Inhibition of beta-Mannosidase; conditions: Homo sapiens; concentration not given here
[2] = molecular target: T2, Mannosyl-oligosaccharide glucosidase (Homo sapiens) (UniProt Q13724); test: Inhibition of Glucosidase 1(of Endoplasmic reticulum processing alpha-glucosidase) at 2 umol/mL
T2 sequence (whole entry): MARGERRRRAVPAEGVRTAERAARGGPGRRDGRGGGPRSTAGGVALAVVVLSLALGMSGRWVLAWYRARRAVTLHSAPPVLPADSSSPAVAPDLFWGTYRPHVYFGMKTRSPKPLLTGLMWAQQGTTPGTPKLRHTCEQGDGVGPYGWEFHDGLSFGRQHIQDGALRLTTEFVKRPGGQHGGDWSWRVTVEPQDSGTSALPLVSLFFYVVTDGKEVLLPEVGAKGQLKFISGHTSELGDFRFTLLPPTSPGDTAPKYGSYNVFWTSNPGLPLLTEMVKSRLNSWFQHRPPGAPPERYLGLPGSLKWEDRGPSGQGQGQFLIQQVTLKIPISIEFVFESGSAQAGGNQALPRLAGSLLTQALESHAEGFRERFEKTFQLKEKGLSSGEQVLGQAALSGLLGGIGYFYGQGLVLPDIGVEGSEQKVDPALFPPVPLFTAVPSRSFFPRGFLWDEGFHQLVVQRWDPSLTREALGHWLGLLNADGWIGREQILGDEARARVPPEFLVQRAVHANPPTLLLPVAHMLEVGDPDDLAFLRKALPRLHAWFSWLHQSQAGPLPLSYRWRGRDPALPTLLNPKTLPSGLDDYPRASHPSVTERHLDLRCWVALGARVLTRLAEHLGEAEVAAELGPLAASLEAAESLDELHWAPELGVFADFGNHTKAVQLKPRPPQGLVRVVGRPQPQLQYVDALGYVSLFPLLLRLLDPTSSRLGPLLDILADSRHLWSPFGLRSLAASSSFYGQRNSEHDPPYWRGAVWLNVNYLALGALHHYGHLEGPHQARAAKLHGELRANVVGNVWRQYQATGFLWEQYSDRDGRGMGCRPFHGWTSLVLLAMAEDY

[3] = molecular target: T3, Cytosolic beta-glucosidase (Homo sapiens) (UniProt Q9H227); test: Inhibition of beta-Glucosidase at 1 umol/mL
T3 sequence (whole entry): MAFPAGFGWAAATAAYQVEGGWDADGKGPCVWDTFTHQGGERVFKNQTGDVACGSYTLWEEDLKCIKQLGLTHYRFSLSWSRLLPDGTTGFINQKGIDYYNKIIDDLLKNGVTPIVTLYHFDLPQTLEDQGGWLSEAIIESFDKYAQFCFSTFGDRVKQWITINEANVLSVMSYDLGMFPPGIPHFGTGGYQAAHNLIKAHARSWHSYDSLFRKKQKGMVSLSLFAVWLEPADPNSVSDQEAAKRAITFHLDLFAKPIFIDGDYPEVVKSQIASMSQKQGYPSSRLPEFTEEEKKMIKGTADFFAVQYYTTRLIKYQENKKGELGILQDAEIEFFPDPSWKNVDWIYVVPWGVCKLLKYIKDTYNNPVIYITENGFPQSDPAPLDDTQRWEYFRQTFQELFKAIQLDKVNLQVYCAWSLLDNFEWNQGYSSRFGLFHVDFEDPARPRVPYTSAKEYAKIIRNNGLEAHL

Homo sapiens = species: Homo sapiens; test: Inhibition of Glucosidase 2 at 12 umol/mL
[4] = Inhibitory concentration of Bacillus stearothermophilus glucosidase (of family 13 alpha-glucosidase) at 1 umol/mL; set-up: species or system Geobacillus stearothermophilus
[5] = Competitive Inhibition constant for Bacillus stearothermophilus glucosidase; set-up: species or system Geobacillus stearothermophilus

Question: With `O=C(CO)NCC1OC(CO)C(O)C(O)C1O` (configuration not stated) as the compound, how does the IC50 (Alpha-glucosidase) read?
Answer: 851 µM

Question: What does the source list for `O=C(NCC1OC(CO)C(O)C(O)C1O)c1ccccc1` (configuration not stated)?
Answer: inhibition [1]: < 1%; inhibition [2]: 18.2%; inhibition [3]: < 1%

Question: With `O=C(CCO)NCC1OC(CO)C(O)C(O)C1O` (configuration not stated) as the compound, how does the inhibition (Homo sapiens) read?
Answer: < 1%

Question: Which IC50 [4] does the source give for `O=C(CCCCO)NCC1OC(CO)C(O)C(O)C1O` (configuration not stated) here?
Answer: 415 µM

Question: What about the Ki [5] of the same compound?
Answer: 580 µM

From ChEMBL document CHEMBL1142021, “Aglycon specificity profiling of alpha-glucosidases using synthetic probes” (Bioorg Med Chem Lett, 2005)
